{
  "source": "patent US20250090441A1",
  "about": "“ANTI-CARIES PEPTIDES WITH ANTIMICROBIAL AND REMINERALIZING PROPERTIES AND METHODS THEREOF” (THE UNIVERSITY OF HONG KONG, priority 2023, published 2025)",
  "key": {"[1]": {"tested_on": "Candida albicans, ATCC 90028", "assay_type": "cell-based", "experimental": "The antimicrobial properties of synthesized peptides against bacteria and fungi were evaluated using minimum inhibitory concentration (MIC) and minimum bactericidal/fungicidal concentration (MBC/MFC) tests (Wiegand et al. 2008). The tested species include Streptococcus mutans, UA159; Lacticaseibacillus casei, American Type Culture Collection (ATCC) 334; and Candida albicans, ATCC 90028. A 10 μL aliquot of bacterial culture (10^6 CFU/mL) in brain heart infusion (BHI) broth was added to 100 μL serial two-fold dilutions of experimental solutions. The optical density values at 660 nm were measured after 18 h of incubation. To determine the MBC, 10 μL of bacterial culture was taken from the well of MIC, and wells before and after the well of MIC, and transferred to blood agar. The test protocol for fungi was similar: the culture medium was a Roswell Park Memorial Institute (RPMI) 1640 Medium, the absorbance was measured at 520 nm, and Sabouraud dextrose agar was used for the MFC test. Chlorhexidine and medium were used as the positive and negative controls."}, "[2]": {"tested_on": "Candida albicans in multiple-species cariogenic biofilm", "assay": "Multiple-species cariogenic biofilm, PMA-qPCR", "assay_type": "cell-based", "details": "three-species biofilm treated with GAPI, n=6 per group", "experimental": "(§1) A multiple-species cariogenic biofilm consisting of Streptococcus mutans, Lacticaseibacillus casei and Candida albicans was cultured to assess the anti-biofilm properties of GAPI. The culture medium was modified-artificial saliva as described in a previous protocol (Yassin et al. 2016). The biofilm was cultured on glass slides in 24-well plates with 1×10^7 Streptococcus mutans, 1×10^7 Lacticaseibacillus casei and 1×10^5 Candida albicans for 48 h. The biofilm was then treated with GAPI. The biofilm with no treatment was the negative control. After another 48-h incubation, the biofilm was collected for sequent assessments. The architecture of the multiple-species biofilm was assessed using scanning electron microscopy (SEM) and confocal laser scanning microscopy (CLSM). The sample was prepared with our published protocol (Niu et al. 2021d). The growth kinetics of the multiple-species biofilm were analyzed using propidium monoazide-quantitative polymerase chain reaction (PMA-qPCR) (Loozen et al. 2011). Biofilm was suspended in phosphate-buffered solution. The suspension was treated with propidium monoazide (PMA) (Biotium, San Francisco, USA) and exposed to halogen light photoactivation (PMA-Lite™, Biotium, San Francisco, USA). The brightness (luminosity) of the light device is 600-800 millicandela and its wavelength is 465-475 nm. Then deoxyribonucleic acid (DNA) was extracted from PMA-treated biofilm suspension using QIAamp DNA Mini Kit (QIAGEN, Dusseldorf, Germany). The oligonucleotide primers and TaqMan probes were used to quantify multiple-species cariogenic biofilm species: SMUT-forward(F), SMUT-reverse(R) and SMUT-probe(P) for Streptococcus mutans, Lc-F, Lc-R, Lc-P for Lactobacillus casei and Ca—F, Ca—R and Ca-P for Candida albicans […]. […]\n(§2) Biofilm was suspended in phosphate-buffered solution. […] The oligonucleotide primers and TaqMan probes were used to quantify multiple-species cariogenic biofilm species: SMUT-forward(F), SMUT-reverse(R) and SMUT-probe(P) for Streptococcus mutans, Lc-F, Lc-R, Lc-P for Lactobacillus casei and Ca—F, Ca—R and Ca-P for Candida albicans (Table 3). […]"}, "[3]": {"tested_on": "Lacticaseibacillus casei in multiple-species cariogenic biofilm", "assay": "Multiple-species cariogenic biofilm, PMA-qPCR", "assay_type": "cell-based", "details": "three-species biofilm treated with GAPI, n=6 per group", "experimental": "as §1, §2"}, "[4]": {"tested_on": "Streptococcus mutans in multiple-species cariogenic biofilm", "assay": "Multiple-species cariogenic biofilm, PMA-qPCR", "assay_type": "cell-based", "details": "three-species biofilm treated with GAPI, n=6 per group", "experimental": "as §1, §2"}, "[5]": {"assay": "Remineralizing effects on enamel, chemical pH cycling model (SEM-EDS, Micro-CT, XRD)", "design": "species or system human", "details": "160 μM twice daily, pH cycling 8 days, n = 8", "experimental": "Ten enamel slices were cut from extracted sound human molars. Each slice was separated into four blocks. A total of 40 enamel blocks were prepared. Then the surface of the enamel block was half-covered by an acid-resistant varnish. The exposed half was the experimental surface, and the varnished half was the internal control. Before use, all the enamel blocks were sterilized via autoclave (Niu et al. 2021d; Yu et al. 2018).\nThe pH-cycling procedure (16 h-demineralization at pH 4.5 and 8 h-remineralization at pH 7.0) was performed to enamel blocks for 8 days. The formula for demineralizing/remineralizing solution was employed from a previous study (Yu et al. 2018). The enamel blocks from the same enamel slice were treated twice daily with 160 μM GAPI (GAPI Group), 160 μM gallic acid (GA Group), 160 μM polyphemusin-I (PI Group), and sterile deionized water (Water Group). All enamel blocks after pH cycling were involved in sequent assessments.\nThe structure of the enamel surface was examined using SEM (n=8 per group) (Niu et al. 2021d). The elemental analysis of enamel surface was conducted using affiliated energy-dispersive X-ray spectroscopy (EDS). The calcium to phosphorus molar ratio was calculated (Niu et al. 2022). The mineral loss and lesion depth on the enamel blocks were assessed using microcomputed tomography (Micro-CT) (1076, SkyScan, Antwerp, Belgium) (n=8 per group) (Niu et al. 2022). The diffraction patterns of the enamel blocks were evaluated using X-ray diffraction analysis (XRD) (Rigaku SmartLab 9 kW, […]) (n=2 per group) (Yu et al. 2018)."}},
  "note": "Where a SMILES comes first, the peptide text is derived from it.",
  "data": [
    {"smiles": "CC(C)[C@@H]1NC(=O)[C@H](CCCN=C(N)N)NC(=O)[C@H](Cc2ccccc2)NC(=O)[C@@H](NC(=O)[C@H](Cc2c[nH]c3ccccc23)NC(=O)[C@H](CCCN=C(N)N)NC(=O)[C@H](CCCN=C(N)N)NC(=O)c2cc(O)c(O)c(O)c2)CSSC[C@@H](C(=O)N[C@@H](CCCN=C(N)N)C(=O)O)NC(=O)[C@H](CCCCN)NC(=O)[C@H](CCCN=C(N)N)NC(=O)[C@H](Cc2ccc(O)cc2)NC(=O)[C@@H]2CSSC[C@H](NC1=O)C(=O)N[C@@H](Cc1ccc(O)cc1)C(=O)N[C@@H](CCCN=C(N)N)C(=O)NCC(=O)N[C@@H](Cc1ccccc1)C(=O)N2", "note": "[GAPI, Gallic-Acid-Polyphemusin-I] (HELM PEPTIDE1{[O=C(c1cc(O)c(O)c(O)c1)[*:2]].R.R.W.C.F.R.V.C.Y.R.G.F.C.Y.R.K.C.R}$PEPTIDE1,PEPTIDE1,5:R3-18:R3|PEPTIDE1,PEPTIDE1,9:R3-14:R3$$$V2.0)", "values": [
      {"measurement": "minimum inhibitory concentration", "setting": "[1]", "result": 80, "unit": "µM"},
      {"measurement": "MBC/MFC", "setting": "[1]; μM", "result": 40},
      {"measurement": "MIC", "setting": "[1]; μM", "result": 20},
      {"measurement": "log 10 cell counts of Candida albicans", "setting": "[2]", "result": "6.63±0.55"},
      {"measurement": "log 10 cell counts of Lacticaseibacillus casei", "setting": "[3]", "result": "7.33±0.38"},
      {"measurement": "log 10 cell counts of Streptococcus mutans", "setting": "[4]", "result": "6.05±0.37"},
      {"measurement": "Calcium to phosphate molar ratio", "setting": "[5]; EDS", "result": "1.81 ± 0.05"},
      {"measurement": "Lesion depth", "setting": "[5]; Micro-CT", "result": "64 ± 7", "unit": "μm"},
      {"measurement": "Mineral loss", "setting": "[5]; Micro-CT", "result": "0.89 ± 0.20", "unit": "gHApcm^−3"}
    ]}
  ]
}
